Source: patent publication US12241087B2, “Compositions and methods for differentiating stem cells into NK cells” (CRISPR THERAPEUTICS AG, priority 2020, dated 2025)

What was measured:
iPSC [1] = assay: Effect of CHIR-99021 concentration in NK-MED-005c medium on iNK induction; format: cell-based, human; details: 2.5, 3.5 or 4.5 μM, differentiation day 20, AP2.0
Description: To determine the optimal concentration of CHIR-99021, different concentrations (2.5 μM, 3.5 μM or 4.5 μM) were added to the NK-MED-005c medium (Table 30) to test their effect on iNK induction. Differentiation proceeded according to Protocol 2 (AP2.0) as described in Example 11. Cells were collected and analyzed using flow cytometry to detect CD45^+CD56^+ cells at differentiation day 20.

iPSC [2] = assay: CD45/CD56 expression on day 28 after early modulation of WNT signaling; format: cell-based, human
Description: For iPSC-HSPC differentiation optimization, CD45/CD56 expression on day 28 was measured (FIG. 10). The HSPC cells on day 6 were further differentiated to iNK in the StemPro-34—based differentiation media Table 12) in the presence of IL7, IL15, SCF. Flt3L, (IL3 was added for days 6-14 only). […] However, it was not an optimal condition as the single cells production and expansion was lower than in conditions in the presence of Activin A molecule (data not shown). Due to low CD56^+ cells formation on day 28, the HSPC to iNK differentiation conditions was optimized.

iPSC [3] = assay: Effect of WNT-C59 in NK-MED-006 medium on iNK induction; format: cell-based, human; details: 2 μM, day 20 cultures, AP2.0
Description: The effect of including WNT-C59 (2 μM) in NK-MED-006 medium during iNK induction using the AP2.0 protocol was examined. […] The addition of WNT-C59 increased proportion of cells expressing non-NK lineage markers.

HSPC [4] = assay: Design of Experiment (DoE) I, day 6 to day 20; format: cell-based, human; details: differentiation and number of cells at day 20
Description: This Example reports the identification of optimized concentrations for certain components in the base media. A design of Experiment (DoE) study was performed to determine the concentrations of zinc sulfate, β-mercaptoethanol, human serum, and glucose that would provide the most differentiation and increased number of cells at differentiation day 20. These factors were selected based on known chemical/biological effects of them in affect general cell proliferation and differentiation. Potential positive/negative involvement of β-mercaptoethanol, zinc ion, human serum, and glucose in NIK cell or lymphocyte cell proliferation, killer cell receptor function, and cytotoxicity have been previously reported. There were no known studies conducted on testing optimal range of these factors in NK cell induction from HSPC.

HSPC [5] = assay: Stage II basal media testing (HSPC to iNK), day 21 single cells; format: cell-based, human; details: in StemPro-based media
Description: This Example investigates the use of various alternative base media that can be used for Stage II differentiation. […] The HSPC to iNK differentiation from day 6 further on was done in StemPro-34—based media (Table 12). […] In this Example, the […] until day 6 as described in Example 2 (i.e., steps 1-5). Each media was supplemented with 20 ng/mL IL7, 20 ng/mL IL15, 20 ng/mL SCF, 20 ng/mL Flt3L and 5 ng/mL of IL-3 for days 6-14 and 20 ng/mL IL7, 20 ng/mL IL15, 20 ng/mL SCF, 20 ng/mL Flt3L for days 14-21 of differentiation.
Day 21 single cells were profiled for CD45^+/CD56^+, CD56^+/NKG2D^+, CD56^+/CD94^+, and CD56^+/CD16^+ expression (FIG. 12). […] The DMEM/F12 2:1 basal media was chosen due to its price and higher availability for scale up production.

HSPC [6] = assay: Effect of β-mercaptoethanol on differentiation, CD45 and CD56 expression; format: cell-based; details: 50 μM in DMEM/F12 media with low zinc, low human serum
Description: To determine the effects of β-mercaptoethanol on differentiation, CD45+ and CD56+ expression was measured in cells cultured in Stempro34 media, DMEM/F12 media with low zinc, low human serum, and no β-mercaptoethanol (bME), or DMEM/F12 media with low zinc, low human serum, and 50 μM β-mercaptoethanol.

With `Cc1cnc(-c2cnc(NCCNc3ccc(C#N)cn3)nc2-c2ccc(Cl)cc2Cl)[nH]1` [CHIR-99021, 6-[[2-[[4-(2,4-Dichlorophenyl)-5-(5-methyl-1H-imidazol-2-yl)-2-pyrimidinyl]amino]ethyl]amino]-3-pyridinecarbonitrile] as the compound, how does the “proportion of CD45+CD56+ cells” value (iPSC [1]) read?
Its value is “highest proportion of CD45^+CD56^+ cells were collected using a moderate amount”.

And the “CD56+ percentage” value (iPSC [2]; day 28, condition #5, StemPro-34 based media)?
Its value is “highest”.

And the “single cells production and expansion” value (iPSC [2]; versus conditions with Activin A, data not shown)?
The value was “lower”.

What does the source list for `Cc1cc(-c2ccc(CC(=O)Nc3ccc(-c4cccnc4)cc3)cc2)ccn1` [WNT-C59]?
proportion of cells expressing non-NK lineage markers (iPSC [3]): increased; proportion of iNK that expressed the myeloid progenitor marker CD33 (iPSC [3]): altered

Which “direction of effect in DoE I” value (HSPC [4]) does the source give for `O=S(=O)([O-])[O-].[Zn+2]` [Zinc sulfate] here?
The value was “positive effect”.

With `OCCS` [β-mercaptoethanol] as the compound, how does the iNK differentiation (HSPC [5]) read?
Its iNK differentiation is “prevented iNK differentiation”.

What about the “effect on iNK cell induction” value (HSPC [6]) of the same compound?
Its value is “negative effect”.

And the “direction of effect in DoE I” value (HSPC [4])?
Its value is “negative effect”.
